# According to ChEMBL document CHEMBL1131458, “Design and synthesis of malonic acid-based inhibitors of human neutrophil collagenase (MMP8)” (J Med Chem, 1998):
# Biological target: Neutrophil collagenase (Homo sapiens, UniProt P22894)
# Test: Inhibition of Matrix metalloprotease-8 (Human neutrophil collagenase, MMP-8)
# Sequence of Neutrophil collagenase (P22894 whole entry): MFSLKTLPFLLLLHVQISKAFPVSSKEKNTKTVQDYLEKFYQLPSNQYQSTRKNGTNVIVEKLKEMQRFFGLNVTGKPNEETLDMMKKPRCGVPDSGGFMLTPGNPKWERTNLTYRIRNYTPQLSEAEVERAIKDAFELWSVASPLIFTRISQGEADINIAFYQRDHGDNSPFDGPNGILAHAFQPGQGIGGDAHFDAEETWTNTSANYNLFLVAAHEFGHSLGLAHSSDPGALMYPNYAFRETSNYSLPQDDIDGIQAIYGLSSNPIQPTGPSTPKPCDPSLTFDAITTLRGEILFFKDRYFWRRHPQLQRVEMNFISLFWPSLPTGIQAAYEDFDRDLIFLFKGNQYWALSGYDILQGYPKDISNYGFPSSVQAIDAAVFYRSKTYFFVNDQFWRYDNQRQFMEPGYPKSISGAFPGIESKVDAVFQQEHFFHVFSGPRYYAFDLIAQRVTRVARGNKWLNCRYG
row,SMILES,Ki [µM]
1,O=C(NO)C(Cc1ccccc1)C(=O)NCc1ccccc1 (stereo not given),3.1
2,CCCCCCCCNC(=O)C(CC(C)C)C(=O)NO (stereo not given),0.24
3,CCOC(=O)C(CCc1ccccc1)C(=O)NO (stereo not given),189
4,O=C(NO)C(CCc1ccccc1)C(=O)NCCCc1ccccc1 (stereo not given),0.49
5,CC(C)CC(C(=O)NO)C(=O)N[C@H](C)C(=O)NCc1ccccc1 (stereo not given in full),194
6,CC(C)CC(C(=O)NO)C(=O)NCCCc1ccccc1 (stereo not given),0.54
7,O=C(NO)C(CCc1ccccc1)C(=O)NCc1ccccc1 (stereo not given),2.3
8,CCOC(=O)C(C(=O)NO)c1ccccc1 (stereo not given),98
9,O=C(NO)C(Cc1ccccc1)C(=O)N1CCOCC1 (stereo not given),50
10,CC(C)C[C@H](C(=O)NO)C(=O)N[C@@H](C)C(=O)NCC(N)=O,121
11,CC(C)CC(C(=O)NO)C(=O)NC(CC(N)=O)C(=O)NCc1ccccc1 (stereo not given),55
12,O=C(NO)C(O)C(=O)NCCCc1ccccc1 (stereo not given),2.3
13,CC(C)CC(C(=O)NO)C(=O)NC(CC(N)=O)C(=O)NCc1cccc(N)c1 (stereo not given),26
14,O=C(NO)C(Cc1ccccc1)C(=O)NCCCc1ccccc1 (stereo not given),0.56
15,CC(C)CC(C(=O)NO)C(=O)NC(C)C(=O)NCc1ccccc1 (stereo not given),50
16,CCOC(=O)C(CC(C)C)C(=O)NO (stereo not given),190
17,CCOC(=O)C(Cc1ccccc1)C(=O)NO (stereo not given),53
18,CC(C)CC(C(=O)NO)C(=O)N1CCCC1C(=O)NCc1ccccc1 (stereo not given),168

# Continued, values first:
row,Ki [µM],SMILES
1,20,CC(C)CC(C(=O)NO)C(=O)N[C@@H](CCc1ccccc1)C(=O)NCCc1ccc(C(=O)O)cc1 (stereo not given in full)
2,36,CC(C)CC(C(=O)NO)C(=O)Nc1ccccc1C(=O)NCc1ccccc1 (stereo not given)
3,25,CC(C)CC(C(=O)NO)C(=O)NC(Cc1ccccc1)C(=O)NCc1ccccc1 (stereo not given)
4,35,CC(C)CC(C(=O)NO)C(=O)NC(CO)C(=O)NCc1ccccc1 (stereo not given)
5,1.6,Cc1ccc(CCNC(=O)[C@H](CCc2ccccc2)NC(=O)C(O)C(=O)NO)cc1 (stereo not given in full)
6,1.4,Cc1ccc(CCNC(=O)[C@H](CCc2ccccc2)NC(=O)C(CC(C)C)C(=O)NO)cc1 (stereo not given in full)
7,12,CC(C)CC(C(=O)NO)C(=O)N[C@@H](CCc1ccccc1)C(=O)NCCc1ccc(O)cc1 (stereo not given in full)
8,4,Cc1ccc(CCNC(=O)[C@H](CCc2ccccc2)NC(=O)C(CCc2ccccc2)C(=O)NO)cc1 (stereo not given in full)
9,1.7,Cc1ccc(CCNC(=O)[C@H](CCc2ccccc2)NC(=O)C(Cc2ccccc2)C(=O)NO)cc1 (stereo not given in full)
10,9.6,COC(=O)c1ccc(CCNC(=O)[C@H](CCc2ccccc2)NC(=O)C(CC(C)C)C(=O)NO)cc1 (stereo not given in full)
11,136,CC(C)CC(C(=O)NO)C(=O)NC(CC(=O)O)C(=O)NCc1ccccc1 (stereo in doubt; 12)
12,88,CC(C)CC(C(=O)NO)C(=O)NC(CC(=O)O)C(=O)NCc1ccccc1 (stereo in doubt; 12b)
